The values that follow come from patent US20070004803A1, “Compounds and methods for use in treating neoplasia and cancer based upon inhibitors of isoprenylcysteine methyltransferase” (Purdue Research Foundation, priority 2003, published 2007).

Test [1] addresses T1, Saccharomyces cerevisiae Icmt (Saccharomyces cerevisiae, UniProt P32584).
T1 construct: A 734 bp EagI-SacII fragment, which contained the gene STE14, was amplified from pSM187; made in house; host or cells: Saccharomyces cerevisiae strain CH2704 (plasmid pCHH10m3N-STE14 in the Ste14p-lacking strain SM1188); membrane fraction
T1 sequence (P32584 1-239): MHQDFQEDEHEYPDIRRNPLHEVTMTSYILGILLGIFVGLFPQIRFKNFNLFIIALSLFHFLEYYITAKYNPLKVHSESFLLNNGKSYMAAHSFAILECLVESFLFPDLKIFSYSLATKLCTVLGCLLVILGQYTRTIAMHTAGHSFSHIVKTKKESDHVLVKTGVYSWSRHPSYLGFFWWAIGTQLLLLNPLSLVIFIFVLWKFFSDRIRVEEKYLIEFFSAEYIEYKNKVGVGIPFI
Description: In vitro vapor diffusion methyltransferase assay, AFC analogues as substrates. Type of test: biochemical. The note with it: Relative velocity (compared to AFC) at 125 μM; substrate ability. As for the experimental part: Previous studies in this laboratory have focused on the isoprenoid substrate specificity of FTase. […] These isoprenoid moieties were chosen in part because the corresponding FPP analogues are alternative substrates for FTase, and can thus be readily incorporated into peptides and proteins. The assays were performed using overexpressed, reconstituted recombinant Saccharomyces cerevisiae Icmt.
(§1) Isolation of Membrane Fraction from Yeast Cells—Mid-log phase yeast cells (2.0-3.0 OD600/mL), grown in SC-URA, media, were harvested by centrifugation at 3500×g for 10 minutes at 4° C., washed with 10 mM NaN3, and resuspended in lysis buffer (0.3 M sorbitol, 10 mM Tris-HCl pH 7.5, 0.1 M NaCl, 5 mM MgCl2, 1% aprotinin, 10 μg/mL leupeptin, 10 μg/in L pepstatin A, 10 μg/mL chymostatin, 10 μg/mL bestatin, 1 mM dithiothreitol, and 2 mM AEBSF) to a final concentration of 800 OD600/mL. After a 15 min incubation on ice, the cells were frozen and thawed twice in liquid N2. The cells were then lysed by passing the mixture twice through a French press. The resultant mixture was centrifuged at 500×g to remove whole cells and other particulate. The supernatant was then treated with 50 U/mL micrococcal nuclease followed by centrifugation at 150,000×g in a Beckman L5 50B centrifuge (45 Ti rotor) for 90 minutes at 4° C., to pellet the membrane fraction. The pellet was resuspended in lysis buffer containing 10% glycerol, aliquoted, and stored at −80° C. Membrane protein concentration was determined using Coomassie Plus Protein Assay Reagent (Pierce Biotechnology) according to the manufacturers instructions, and compared to a BSA standard curve prepared by the same procedure. Protein samples were analyzed by immunoblot analysis and in vitro vapor diffusion methyltransferase assay as described elsewhere.
(§2) In vitro vapor diffusion methyltransferase assay—Methyltrasferase assays were performed in a total volume of 60 μL and a final Tris-HCl concentration of 100 mM, pH 7.5. All reactions contained 20 μM S-adenosyl-[^14C-methyl]-methionine (SAM) and 5 μg of membrane protein from the His-Ste14p overexpressing strain CH2704. Substrate curves were generated by varying the amount of compound in each reaction. […] The 60 μL reactions were incubated at 30° C. for 30 minutes. The reaction was stopped with the addition of 50 μL of 1M NaOH/1% SDS. 100 μL of this mixture is then spotted on folded filter paper (5.5 cm×1.5 cm) and lodged in the neck of a scintillation vial containing 10 mL of scintillation fluid. Hydroxide ion forms a tetrahedral intermediate with the newly formed ^14C-methyl ester on the methyl acceptor. This intermediate then eliminates ^14C-methanol, which diffuses into the scintillation fluid below. The filters were pulled out after 2-3 hours, the vials were shaken well and counted in a liquid scintillation analyzer.

Test [2] deals with T1, Saccharomyces cerevisiae Icmt. As to the kind of experiment: In vitro vapor diffusion methyltransferase assay, inhibition of AFC methylation. Format: biochemical. To be noted: for IC50: inhibition curves in the presence of 33 μM AFC; for Icmt inhibitory ability (in words): inhibition of AFC methylation. As for the experimental part:
Previous studies in this laboratory have focused on the isoprenoid substrate specificity of FTase. We have discovered analogues that are effective alternative substrates, and compounds that are potent inhibitors. […] In the initial study, six isoprenoid-modified analogues (2-7, Chart 1, below) of the minimal Icmt substrate AFC 1 were prepared and evaluated as substrates and as inhibitors of the enzyme. These isoprenoid moieties were chosen in part because the corresponding FPP analogues are alternative substrates for FTase, and can thus be readily incorporated into peptides and proteins. The assays were performed using overexpressed, reconstituted recombinant Saccharomyces cerevisiae Icmt.
as §1
as §2, with “reaction. Inhibition curves were generated by varying the amount of compound in each reaction while in the presence of 33 μM N-acetyl-S-farneslylcysteine (AFC).” for “reaction.”

Molecules are shown by their SMILES.

As to `CCCCCCCCCC/C(C)=C/CSC[C@H](NC(C)=O)C(=O)O` [Compound 6], the Icmt krel in test [1] is reported as 24.2.
Regarding `CC(=O)N[C@@H](CSC/C=C(\CC=C(C)C)CC/C=C(\C)CC/C=C(\C)CCC=C(C)C)C(=O)O` [Compound 12, N-Acetyl-S-(3-(3-methylbut-2-enyl) 7,11,15-trimethylhexadeca-2Z,6E,10E,14-tetraen-1-yl)-L-cysteine], the Icmt krel in test [1] is listed as 50.0. Moreover, the concentration for half-maximal inhibition (IC50) in test [2] was found to be 130 µM.
For `CC(=O)N[C@@H](CSC/C=C(\C)CC/C=C(\CC=C(C)C)CC/C=C(\C)CCC=C(C)C)C(=O)O` [Compound 13, N-Acetyl-S-(7-(3-methylbut-2-enyl) 3,11,15-trimethylhexadeca-2Z,6E,10E,14-tetraen-1-yl)-L-cysteine] the same measures were 16.3 and 130 µM.
`CC(=O)N[C@@H](CSC/C=C(\CC=C(C)C)CCc1ccc(-c2ccccc2)cc1)C(=O)O` [Compound 14] displayed an Icmt krel in test [1] of 0.70. Further, in test [2], the “Icmt inhibitory ability (in words)” value is listed as “moderately effective inhibitor of Icmt”.
Turning to `C=CCC/C(=C\CSC[C@H](NC(C)=O)C(=O)O)CC/C=C(\C)CCC=C(C)C` [Compound 9, N-Acetyl-S-(3-(but-3-enyl)-7,11-dimethyldodeca-2Z,6E,10-trien-1-yl)-L-cysteine], in test [1], the Icmt krel is 35.4.
Regarding `CC(=O)N[C@@H](CSC/C=C(\C)CC/C=C(\CC=C(C)C)CCC=C(C)C)C(=O)O` [Compound 10, N-Acetyl-S-(7-(3-methylbut-2-enyl)-3,11-dimethyldodeca-2Z,6E,10-trien-1-yl) -L-cysteine], the Icmt krel in test [1] is given as 35.0.
Same read-out and setting: in the case of `C=CCC(=CCSC[C@H](NC(C)=O)C(=O)O)CCC=C(C)CCC=C(C)C` [Compound 8, N-Acetyl-S-(3-allyl-7,11-dimethyldodeca-2,6,10-triene-1-yl)-L-cysteine] it was 18.6.
In test [1], `CC(=O)N[C@@H](CSC/C=C(\CC=C(C)C)CC/C=C(\C)CCC=C(C)C)C(=O)O` [Compound 3, N-Acetyl-S-(3-(3-methylbut-2-enyl)-7,11-dimethyldodeca-2(Z),6(E),10-trien-1-yl)-L-cysteine] came in with an Icmt krel of 5.9. For the same molecule, in test [2] (AFC(protein)-competitive inhibition of Icmt), affinity was put at a Ki of 21.3 µM. Further, the “Icmt inhibitory ability (in words)” value in test [2] is on record as “low micromolar inhibitor of AFC methylation”. Also, the mode of action result in test [2] (varying AFC at constant inhibitor concentration) is “AFC(protein)—competitive inhibitor of Icmt”.
In the case of `CC(=O)N[C@@H](CSCC=C(C)CCC=C(C)CCC=C(C)C)C(=O)O` [Compound 1, N-acetyl-S-farneslylcysteine, reference compound], the Icmt krel in test [1] is 100.
In turn, `CC(=O)N[C@@H](CSC/C=C(/C)CC/C=C(\C)CCC=C(C)C)C(=O)O` [Compound 4, N-Acetyl-S-(3,7,11-trimethyldodeca-2(Z),6(E),10-trien-1-yl)-L-cysteine] displayed an Icmt krel in test [1] of 62.0.
Same read-out and setting: to `CC(=O)N[C@@H](CSC/C=C(\C)CC/C=C(/C)CCC=C(C)C)C(=O)O` [Compound 5, N-Acetyl-S-(3,7,11-trimethyldodeca-2(E),6(Z),10-trien-1-yl)-L-cysteine] belongs 19.1.
